Measurements as given in ChEMBL document CHEMBL1909046, “DrugMatrix in vitro pharmacology data”.

How the values were obtained:
[1] = target: T1, Alpha-1A adrenergic receptor (Rattus norvegicus, UniProt P43140); assay: DRUGMATRIX: Alpha-1A adrenergic receptor radioligand binding (ligand: prazosin); assay type: cell membranes, Wistar, Submaxillary gland, Membrane; conditions: Not Active = under 50% inhibition at 10 µM
T1 sequence (P43140 whole entry): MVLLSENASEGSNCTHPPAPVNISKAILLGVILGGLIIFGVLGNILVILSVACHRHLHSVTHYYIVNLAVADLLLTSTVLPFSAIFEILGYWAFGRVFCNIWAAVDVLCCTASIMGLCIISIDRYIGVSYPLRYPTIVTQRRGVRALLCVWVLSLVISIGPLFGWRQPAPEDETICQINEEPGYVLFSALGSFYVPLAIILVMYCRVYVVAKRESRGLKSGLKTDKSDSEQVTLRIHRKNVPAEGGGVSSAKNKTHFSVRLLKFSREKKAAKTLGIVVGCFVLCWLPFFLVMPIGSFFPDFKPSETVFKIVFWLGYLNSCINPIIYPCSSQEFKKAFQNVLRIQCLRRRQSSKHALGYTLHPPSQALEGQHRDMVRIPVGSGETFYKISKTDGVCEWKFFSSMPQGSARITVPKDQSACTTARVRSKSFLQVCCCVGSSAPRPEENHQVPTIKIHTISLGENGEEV

[2] = target: T2, Alpha-1D adrenergic receptor (Homo sapiens, UniProt P25100); assay type: cell membranes, HEK293, Membrane; conditions: hek293; further: in other assays of this panel Not Active means under 50% inhibition at 10 µM
T2 sequence (P25100 whole entry): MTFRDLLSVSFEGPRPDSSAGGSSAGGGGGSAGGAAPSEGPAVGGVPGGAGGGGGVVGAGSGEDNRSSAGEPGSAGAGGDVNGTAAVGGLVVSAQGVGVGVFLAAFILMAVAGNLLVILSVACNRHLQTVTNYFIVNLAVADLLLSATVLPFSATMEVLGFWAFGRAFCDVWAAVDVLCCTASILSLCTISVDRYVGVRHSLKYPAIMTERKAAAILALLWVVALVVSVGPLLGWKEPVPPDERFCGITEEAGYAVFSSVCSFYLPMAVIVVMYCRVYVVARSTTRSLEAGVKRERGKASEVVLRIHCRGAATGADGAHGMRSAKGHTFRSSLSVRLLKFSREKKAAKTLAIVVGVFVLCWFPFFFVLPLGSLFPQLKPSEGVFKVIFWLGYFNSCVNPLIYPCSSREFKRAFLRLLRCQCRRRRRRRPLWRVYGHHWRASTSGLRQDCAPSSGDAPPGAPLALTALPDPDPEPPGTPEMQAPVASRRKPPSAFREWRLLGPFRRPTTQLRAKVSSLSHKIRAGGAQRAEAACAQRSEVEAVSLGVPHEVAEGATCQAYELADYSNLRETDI

[3] = target: 5-hydroxytryptamine receptor 6 (Homo sapiens, UniProt P50406); assay type: cell membranes, HeLa, Membrane; conditions: hela; further: in other assays of this panel Not Active means under 50% inhibition at 10 µM
Sequence of 5-hydroxytryptamine receptor 6 (P50406 whole entry): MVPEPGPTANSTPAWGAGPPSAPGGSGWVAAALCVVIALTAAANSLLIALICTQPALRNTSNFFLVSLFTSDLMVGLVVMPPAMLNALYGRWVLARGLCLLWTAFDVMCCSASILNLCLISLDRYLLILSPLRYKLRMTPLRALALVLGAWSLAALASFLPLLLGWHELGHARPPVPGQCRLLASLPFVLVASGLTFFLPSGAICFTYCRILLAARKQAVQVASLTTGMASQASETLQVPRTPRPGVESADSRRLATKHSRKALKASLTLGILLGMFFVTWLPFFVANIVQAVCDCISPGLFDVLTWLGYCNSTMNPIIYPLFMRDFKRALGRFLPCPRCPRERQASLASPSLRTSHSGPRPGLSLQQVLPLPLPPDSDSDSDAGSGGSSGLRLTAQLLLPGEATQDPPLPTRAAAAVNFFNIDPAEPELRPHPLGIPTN

[4] = DRUGMATRIX: GABAA, Muscimol, Central radioligand binding (ligand: [3H] Muscimol); assay type: cell membranes, Rattus norvegicus, Wistar, Brain, Membrane; conditions: Not Active = under 50% inhibition at 10 µM
[5] = DRUGMATRIX: Glutamate, Kainate radioligand binding (ligand: [3H] Kainic acid); assay type: cell membranes, Rattus norvegicus, Wistar, Brain, Membrane; conditions: Not Active = under 50% inhibition at 10 µM
[6] = DRUGMATRIX: Interleukin IL-1 radioligand binding (ligand: [125I] interleukin 1beta); assay type: cell membranes, Membrane; conditions: nih3t3; Not Active = under 50% inhibition at 10 µM
Progesterone receptor = target: T3, Progesterone receptor (Bos taurus, UniProt Q690N0); assay: DRUGMATRIX: Progesterone radioligand binding (ligand: [3H] R-5020); assay type: tissue-based, Uterus; conditions: Not Active = under 50% inhibition at 10 µM
T3 sequence (Q690N0 whole entry): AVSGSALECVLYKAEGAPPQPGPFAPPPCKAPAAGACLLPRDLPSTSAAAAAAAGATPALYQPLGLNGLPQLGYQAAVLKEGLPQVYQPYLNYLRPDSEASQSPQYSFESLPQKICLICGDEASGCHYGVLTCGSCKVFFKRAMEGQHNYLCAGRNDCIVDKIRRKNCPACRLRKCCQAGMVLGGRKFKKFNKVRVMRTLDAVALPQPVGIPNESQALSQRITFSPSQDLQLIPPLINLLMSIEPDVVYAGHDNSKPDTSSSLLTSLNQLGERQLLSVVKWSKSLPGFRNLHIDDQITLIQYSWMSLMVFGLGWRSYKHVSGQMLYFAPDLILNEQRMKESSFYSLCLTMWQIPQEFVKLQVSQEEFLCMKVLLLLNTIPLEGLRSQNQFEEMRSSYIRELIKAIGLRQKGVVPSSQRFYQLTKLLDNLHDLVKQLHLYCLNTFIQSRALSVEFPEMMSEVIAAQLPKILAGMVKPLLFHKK

[7] = target: Protein kinase C alpha type (Homo sapiens, UniProt P17252); assay type: cell-based; conditions: sf9;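 further: inhibition of PKCalpha kinase activity measured in an enzyme assay with histone as the phosphorylation substrate; in other assays of this panel Not Active means under 50% inhibition at 10 µM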

Row | Compound | IC50 [1] | IC50 [2] | IC50 [3] | IC50 [4] | Ki [4] | IC50 [5] | Ki [5] | IC50 [6] | Ki [6] | IC50 (Progesterone receptor; read-out: IC50) [nM] | Ki (Progesterone receptor; read-out: Ki) [nM] | IC50 [7] | IC50 (Progesterone receptor) | Ki [1] | Ki [2] | Ki [3] | Ki (Progesterone receptor) | Ki [7]
1 | C#C[C@]1(OC(C)=O)CC[C@H]2[C@@H]3CCC4=CC(=O)CC[C@@H]4[C@H]3CC[C@@]21C [NORETHINDRONE ACETATE] | Not Active | Not Active | Not Active | Not Active | Not Active | Not Active | Not Active | Not Active | Not Active | 28 | 3.62 | Not Active |  |  |  |  |  | 
2 | COc1ccc2[nH]c([S+]([O-])Cc3ncc(C)c(OC)c3C)nc2c1 (centres undefined) [OMEPRAZOLE] | Not Active | Not Active | Not Active | Not Active | Not Active | Not Active | Not Active | Not Active | Not Active |  |  | Not Active | Not Active |  |  |  |  | 
3 | Cc1nccn1CC1CCc2c(c3ccccc3n2C)C1=O (centres undefined) [ONDANSETRON] | Not Active | Not Active | Not Active | Not Active | Not Active | Not Active | Not Active | Not Active | Not Active |  |  | Not Active | Not Active |  |  |  |  | 
4 | CCn1cc(C(=O)O)c(=O)c2cc(F)c(N3CCN(C)CC3)cc21 [PEFLOXACIN] | Not Active | Not Active | Not Active | Not Active | Not Active | Not Active | Not Active | Not Active | Not Active |  |  | Not Active | Not Active |  |  |  |  | 
5 | O=C(C1CCCCC1)N1CC(=O)N2CCc3ccccc3C2C1 (centres undefined) [PRAZIQUANTEL] | Not Active | Not Active | Not Active | Not Active | Not Active | Not Active | Not Active | Not Active | Not Active |  |  | Not Active | Not Active |  |  |  |  | 
6 | CCN(CC)CCOC(=O)c1ccc(N)cc1 [PROCAINE] | Not Active | Not Active | Not Active | Not Active | Not Active | Not Active | Not Active | Not Active | Not Active |  |  | Not Active | Not Active |  |  |  |  | 
7 | CCCN(CCC)C(=O)C(CCC(=O)O)NC(=O)c1ccccc1 (centres undefined) [PROGLUMIDE] | Not Active | Not Active | Not Active | Not Active | Not Active | Not Active | Not Active | Not Active | Not Active |  |  | Not Active | Not Active |  |  |  |  | 
8 | NC(=O)c1cnccn1 [PYRAZINAMIDE] | Not Active | Not Active | Not Active | Not Active | Not Active | Not Active | Not Active | Not Active | Not Active |  |  | Not Active | Not Active |  |  |  |  | 
9 | OC(CCN1CCCCC1)(c1ccccc1)C1CCCCC1 (centres undefined) [TRIHEXYPHENIDYL] | Not Active | Not Active | Not Active | Not Active | Not Active | Not Active | Not Active | Not Active | Not Active |  |  | Not Active | Not Active |  |  |  |  | 
10 | Cc1cc2cc3c(C)cc(=O)oc3c(C)c2o1 [TRIOXSALEN] | Not Active | Not Active | Not Active | Not Active | Not Active | Not Active | Not Active | Not Active | Not Active |  |  | Not Active | Not Active |  |  |  |  | 
11 | CCCC(CCC)C(=O)O [VALPROIC ACID] | Not Active | Not Active | Not Active | Not Active | Not Active | Not Active | Not Active | Not Active | Not Active |  |  | Not Active | Not Active |  |  |  |  | 
12 | CCC1=C[C@@H]2CN(C1)Cc1c([nH]c3ccccc13)[C@@](C(=O)OC)(c1cc3c(cc1OC)N(C)[C@H]1[C@@](O)(C(=O)OC)[C@H](OC(C)=O)[C@]4(CC)C=CCN5CC[C@]31[C@@H]54)C2 [VINORELBINE] | Not Active | Not Active | Not Active | Not Active | Not Active | Not Active | Not Active | Not Active | Not Active |  |  | Not Active | Not Active |  |  |  |  | 
13 | CADMIUM DICHLORIDE | Not Active | Not Active | Not Active | Not Active | Not Active | Not Active | Not Active | Not Active | Not Active |  |  | Not Active | Not Active | Not Active | Not Active | Not Active | Not Active | Not Active
